The source of these data is patent US20250092065A1, “2-(INDAZOL-5-YL)-6-(PIPERIDIN-4-YL)-1,7-NAPHTHYRIDINE DERIVATIVES AND RELATED COMPOUNDS AS MODULATORS FOR SPLICING NUCLEIC ACIDS AND FOR THE TREATMENT OF PROLIFERATIVE DISEASES” (REMIX THERAPEUTICS INC., priority 2022, published 2025).

Read-outs that look alike come from different tables or passages of the source.

The test system of data set [1] is HTT mRNA. In words: RT-qPCR splicing assay, HTT mRNA canonical (CJ) and alternative (AJ) junction. Format: cell-based, human. As to conditions: Homo sapiens; for AC50: HTT alternative junction mRNA increase, read-out: HTT AJ (increase in alternative junction mRNA, AC50). The method, then:
(§1) Compounds described herein were used to modulate RNA transcript abundance in cells. The expression of a target mRNA was measured by detecting the formation of an exon-exon junction in the canonical transcript (CJ). A compound mediated exon-inclusion event was detected by observing an increase in formation of a new junction with an alternative exon (AJ). Real-time qPCR assays were used to detect these splicing switches and interrogate the potency of various compounds towards different target genes. A high-throughput real time quantitative PCR (RT-qPCR) assay was developed to measure these two isoforms of the mRNA (CJ and AJ) for exemplary genes, such as HTT, SMN2, and MYB, together with a control housekeeping gene, GAPDH or GUSB or PPIA, used for normalization. Briefly, the A673 or K562 cell line was treated with various compounds described herein (e.g., compounds of Formula (I)). After treatment, the levels of the HTT, MYB, or SMN2 mRNA targets were determined from each sample of cell lysate by cDNA synthesis followed by qPCR.
(§2) The A673 cell line was cultured in DMEM with 10% FBS. Cells were diluted with full growth media and plated in a 96-well plate (15,000 cells in 100 ul media per well). The plate was incubated at 37° C. with 5% CO2 for 24 hours to allow cells to adhere. An 11-point 3-fold serial dilution of the compounds was made in DMSO then diluted in media in an intermediate plate. Compounds were transferred from the intermediate plate to the cell plate with the top dose at a final concentration of 10 uM in the well. Final DMSO concentration was kept at or below 0.25%. The cell plate was returned to the incubator at 37° C. with 5% CO2 for an additional 24 hours.
(§3) The K562 cell line was cultured in IMDM with 10% FBS. For K562, cells were diluted with full growth media and plated in either a 96-well plate (50,000 cells in 50 uL media per well) or a 384-well plate (8,000-40,000 cells in 45 uL media per well). An 11-point 3-fold serial dilution of the compounds were made in DMSO then diluted in media in an intermediate plate. Compound was transferred from the intermediate plate to the cell plate with the top dose at a final concentration of 10 uM in the well. Final DMSO concentration was kept at or below 0.25%. Final volume was 100 uL for 96-well plate and 50 uL for 384-well plate. The cell plate was then placed in an incubator at 37° C. with 5% CO2 for 24 hours.
(§4) The cells were then gently washed with 50 uL-100 uL cold PBS before proceeding to addition of lysis buffer. 30 uL-50 μL of room temperature lysis buffer with DNAse I (and optionally RNAsin) was added to each well. Cells were shaken/mixed thoroughly at room temperature for 5-10 minutes for lysis to take place and then 3 uL-5 μL of room temperature stop solution was added and wells were shaken/mixed again. After 2-5 minutes, the cell lysate plate was transferred to ice for RT-qPCR reaction setup. The lysates could also be frozen at −80° C. for later use.
(§5) In some cases, a direct lysis buffer was used. An appropriate volume of 3× lysis buffer (10 mM Tris, 150 mM NaCl, 1.5%-2.5% Igepal and 0.1-1 U/uL RNAsin, pH 7.4) was directly added to either K562 or A673 cells in media and mixed by pipetting 3 times. The plates were then incubated at room temperature with shaking/rocking for 20-50 minutes to allow for lysis to take place. After this time, the cell lysate plate was transferred to ice to set up for the RT-qPCR reactions. The lysates could also be frozen at −80° C. for later use.
(§6) To set up 10 uL RT-qPCR reactions, cell lysates were transferred to 384-well qPCR plates containing the master mix according to the table below. The plates were sealed, gently vortexed, and spun down before the run. The volumes were adjusted accordingly in some instances where the reaction was carried in 20 μL. The table below summarizes the components of the RT-qPCR reactions:
(§7) The RT-qPCR reaction was performed using a QuantStudio (ThermoFisher) under the following fast cycling conditions. […]

In data set [2] the test system is K562 cells. Description: Cell Titer Glo 2.0 cell viability (toxicity) assay, K562. To be noted: 500 cells/well, 72 hours.
The test system of data set [3] is MYB mRNA. In words: RT-qPCR splicing assay, MYB mRNA canonical (CJ) and alternative (AJ) junction. Format: cell-based, human. To be noted: Homo sapiens; for AC50: MYB alternative junction mRNA increase, read-out: MYB AJ (increase in alternative junction mRNA, AC50). The method, then: as §1, §2, §3, §4, §5, §6, §7
The subject of data set [4] is SMN2 mRNA. In words: RT-qPCR splicing assay, SMN2 mRNA. Format: cell-based, human. To be noted: Homo sapiens, canonical junction qPCR panel, Table 4; read-out: SMN2 IC50 (decrease in CJ mRNA levels). How it is done:
as §1, §2, §3, §4, §5, §6, §7
For orientation: In qPCR the cycle at which signal appears reflects the starting amount.

Setting [5] is: RT-qPCR, HTT canonical junction mRNA decrease, read-out: HTT CJ (decrease in canonical junction mRNA, IC50).
Where [6] appears, read: canonical junction qPCR panel, Table 4, read-out: HTT IC50 (decrease in CJ mRNA levels).
Setting [7] is: RT-qPCR, MYB canonical junction mRNA decrease, read-out: MYB CJ (decrease in canonical junction mRNA, IC50).
The mark [8] stands for this setting: canonical junction qPCR panel, Table 4, read-out: MYB IC50 (decrease in CJ mRNA levels).

For the compound `Cc1cn2cc(-c3ncc4cc(N5C[C@@H](C)N[C@@H](C)C5)ccc4n3)cc(C#N)c2n1` [Compound 831], the AC50 is 1000 to 10000 nM in data set [1] (RT-qPCR) and below 100 nM in data set [3] (RT-qPCR). Further, the IC50 is 100 to 1000 nM in data set [1] (setting [5]); 100 to 1000 nM in data set [1] (setting [6]); below 100 nM in data set [3] (setting [7]); below 100 nM in data set [3] (setting [8]); below 100 nM in data set [4]. In addition, the “Effect of Exemplary Compounds on Cell Viability, K562” value (shortened to “Effect of Exemplary Compounds”) in data set [2] was “B (B represents 100-1000 nM)”.

As for `Cc1cn2cc(-c3ncc4cc(N5C[C@@H](C)N[C@@H](C)C5)ccc4n3)ccc2n1` [Compound 832], the AC50 in data set [1] (RT-qPCR) was above 10000 nM; in data set [3] (RT-qPCR), 1000 to 10000 nM. In addition, the IC50 in data set [1] (setting [5]) was above 10000 nM; in data set [1] (setting [6]), above 10000 nM; in data set [3] (setting [7]) it was 100 to 1000 nM; in data set [3] (setting [8]), 100 to 1000 nM; in data set [4], below 100 nM. The “Effect of Exemplary Compounds” value in data set [2] is given as “C (C represents 1000-9999 nM)”.

With `C[C@@H]1CN(c2ccc3nc(-c4cc(F)c5nncn5c4)ncc3c2)C[C@H](C)N1` [Compound 833], the AC50 in data set [1] (RT-qPCR) and in data set [3] (RT-qPCR) was 1000 to 10000 nM each time. Besides, the IC50 in data set [1] (setting [5]) lay within 1000 to 10000 nM; in data set [1] (setting [6]), 1000 to 10000 nM; in data set [3] (setting [7]) it was 1000 to 10000 nM; in data set [3] (setting [8]), 1000 to 10000 nM; in data set [4] it was 100 to 1000 nM. The “Effect of Exemplary Compounds” value in data set [2] is “C (C represents 1000-9999 nM)”.

On to `C[C@@H]1CN(c2ccc3nc(-c4cc(F)c5nc(CO)cn5c4)ncc3c2)C[C@H](C)N1` [Compound 834, (6-{6-[(3R,5S)-3,5-dimethylpiperazin-1-yl]quinazolin-2-yl}-8-fluoroimidazo[1,2-a]pyridin-2-yl)methanol], for which the AC50 in data set [1] (RT-qPCR) lay in the range of 1000 to 10000 nM; in data set [3] (RT-qPCR), 100 to 1000 nM. Also, the IC50 is 1000 to 10000 nM in data set [1] (setting [5]); 1000 to 10000 nM in data set [1] (setting [6]); 100 to 1000 nM in data set [3] (setting [7]); 100 to 1000 nM in data set [3] (setting [8]); below 100 nM in data set [4]. Besides, the “Effect of Exemplary Compounds” value in data set [2] is listed as “C (C represents 1000-9999 nM)”.

As to `Cc1cn2cc(-c3ncc4cc(N5C[C@@H](C)N[C@@H](C)C5)ccc4n3)cc(Cl)c2n1` [Compound 896], the “Effect of Exemplary Compounds” value in data set [2] was “B (B represents 100-1000 nM)”.

As for `Cn1cc2cc(-c3ncc4cc(N5CC[C@H](NC(C)(C)C)C5)ccc4n3)c(O)c(F)c2n1` [Compound 929], the half-maximal activity concentration (AC50) in data set [1] (RT-qPCR) is 100 to 1000 nM; in data set [3] (RT-qPCR), below 100 nM. Moreover, the IC50 in data set [1] (setting [5]) was 1000 to 10000 nM; in data set [1] (setting [6]) it was 1000 to 10000 nM; in data set [3] (setting [7]), below 100 nM; in data set [3] (setting [8]), below 100 nM; in data set [4] it was below 100 nM.

Consider `Cn1cc2cc(-c3ncc4cc(N5CC[C@@H](NC(C)(C)C)C5)ccc4n3)c(O)c(F)c2n1` [Compound 930], for which the AC50 in data set [1] (RT-qPCR) is above 10000 nM; in data set [3] (RT-qPCR), 100 to 1000 nM. For the same compound, the IC50 is 1000 to 10000 nM in data set [1] (setting [5]); 1000 to 10000 nM in data set [1] (setting [6]); 100 to 1000 nM in data set [3] (setting [7]); 100 to 1000 nM in data set [3] (setting [8]); below 100 nM in data set [4].

One may read the AC50 as the concentration giving half of the maximal activity seen. As a reminder, the IC50 is the concentration at which inhibition is half-maximal.
